Data on two molecules can be found in patent US20200405716A1, “HISTONE DEACETYLASE 6 (HDAC6) BIOMARKERS IN MULTIPLE MYELOMA” (Acetylon Pharmaceuticals, Inc., priority 2013, published 2020).

Type in all cases: cell-based, Human
In test [1] the test system is multiple myeloma cell line MM.1S. In words: microRNA and mRNA array, treated MM.1S cells. Particulars: 37° C., 6 hours. The text has this: The Human miRNome Complete RT^2 miRNA PCR Array profiles the expression of the 752 most abundantly expressed and best characterized microRNA (miRNA) sequences in the Human miRNA genome (miRNome), as annotated by the Sanger miRBase Release 14. The Illumina Gene Expression Beadchip content provides genome-wide transcriptional coverage of well-characterized genes, gene candidates, and splice variants. Each array on the BeadChip targets more than 47,000 probes derived from the National Center for Biotechnology Information Reference Sequence (NCBI) RefSeq Release 38 (Nov. 7, 2009) and other sources. Compound D was incubated with a multiple myeloma cell line (MM.1S or RPMI8226) or a stromal cell line (HS-5) at 37° C. for 6 hours. The concentration of Compound D was 2 uM. Alternatively, Compound A was incubated with the multiple myeloma cell line MM.1S at 37° C. for 6 hours. Total RNA was extracted from the treated cells (e.g., MM.1S cells and RPMI8226 cells) and analyzed using microRNA array. […] The numbers shown are normalized to the expression level of the corresponding biomarker in control cells. For example, the expression level of biomarker hsa-miR-346 was 0.26, which means that the expression level of this biomarker in treated MM.1S cells was 26% of the expression level of this biomarker in MM.1S control cells. Conversely, the expression level of biomarker hsa-miR-145 was 3.09, which means that the expression level of this biomarker in treated MM.1S cells was 3.09 fold of the expression level of this biomarker in MM.1S control cells.

For the next test, the system named is stromal cell line HS-5. In words: microRNA and mRNA array, treated stromal HS-5 cells. Particulars: Compound D 2 uM, 37° C., 6 hours. The source says: (§1) The Human miRNome Complete RT^2 miRNA PCR Array profiles the expression of the 752 most abundantly expressed and best characterized microRNA (miRNA) sequences in the Human miRNA genome (miRNome), as annotated by the Sanger miRBase Release 14.
(§2) The Illumina Gene Expression Beadchip content provides genome-wide transcriptional coverage of well-characterized genes, gene candidates, and splice variants. Each array on the BeadChip targets more than 47,000 probes derived from the National Center for Biotechnology Information Reference Sequence (NCBI) RefSeq Release 38 (Nov. 7, 2009) and other sources.
(§3) Compound D was incubated with a multiple myeloma cell line (MM.1S or RPMI8226) or a stromal cell line (HS-5) at 37° C. for 6 hours. The concentration of Compound D was 2 uM.
(§4) Total RNA was extracted from the treated cells (e.g., MM.1S cells and RPMI8226 cells) and analyzed using microRNA array.
(§5) The numbers shown are normalized to the expression level of the corresponding biomarker in control cells. For example, the expression level of biomarker hsa-miR-346 was 0.26, which means that the expression level of this biomarker in treated MM.1S cells was 26% of the expression level of this biomarker in MM.1S control cells. Conversely, the expression level of biomarker hsa-miR-145 was 3.09, which means that the expression level of this biomarker in treated MM.1S cells was 3.09 fold of the expression level of this biomarker in MM.1S control cells.

Test [2] has as its system multiple myeloma cell line RPMI8226. In words: microRNA and mRNA array, treated RPMI8226 cells. The note with it: RPMI-8226 cells, Compound D 2 uM, 37° C., 6 hours.
Description: as §1, §2, §3, §4, §5

The mark [3] stands for this setting: Compound A (concentration not given).

Consider `O=C(CCCCCCNC(=O)c1cnc(N(c2ccccc2)c2ccccc2)nc1)NO` [Compound A, 2-(diphenylamino)-N-(7-(hydroxyamino)-7-oxoheptyl) pyrimidine-5-carboxamide], for which, in test [1] (setting [3]), the “expression of small non-coding RNA SEQ ID NO: 26 normalized to control cells” value is on record as 0.74 and the “expression of small non-coding RNA SEQ ID NO: 27 normalized to control cells” value was found to be 0.74.
On to `O=C(NO)c1cnc(NC2(c3ccccc3)CC2)nc1` [Compound D, N-hydroxy-2-((1-phenylcyclopropyl)amino)pyrimidine-5-carboxamide], for which, in the test with stromal cell line HS-5, the “HIF-1a expression level in treated cells as % of the expression level in control cells” value is 49%; the “PTPRU expression level in treated cells, fold of the expression level in control cells” value turned out to be 2.52 fold; the “expression of mRNA SEQ ID NO: 24 (HIF-1a) normalized to control cells” value turned out to be 0.49; the “expression of mRNA SEQ ID NO: 25 (PTPRU) normalized to control cells” value amounted to 2.52. Besides, in the test on stromal cell line HS-5, the “expression of miRNA SEQ ID NO: 10 normalized to control cells” value was determined as 0.26, the “expression of miRNA SEQ ID NO: 11 normalized to control cells” value is 0.15, the “expression of miRNA SEQ ID NO: 19 normalized to control cells” value is listed as 6.64 and the “expression of miRNA SEQ ID NO: 20 normalized to control cells” value worked out at 21.71. Moreover, in the test on stromal cell line HS-5, the “expression of miRNA SEQ ID NO: 21 normalized to control cells” value is 54.35, the “expression of miRNA SEQ ID NO: 22 normalized to control cells” value was 5.95 and the “expression of miRNA SEQ ID NO: 23 normalized to control cells” value is reported as 3.52. Also, in test [2], the “expression of miRNA SEQ ID NO: 2 normalized to control cells” value is 0.09, the “expression of miRNA SEQ ID NO: 6 normalized to control cells” value came to 0.28, the “expression of miRNA SEQ ID NO: 7 normalized to control cells” value stood at 0.25 and the “expression of miRNA SEQ ID NO: 8 normalized to control cells” value is recorded as 0.33. In addition, in test [2], the “expression of miRNA SEQ ID NO: 9 normalized to control cells” value is 0.24, the “expression of miRNA SEQ ID NO: 17 normalized to control cells” value came out at 3.22 and the “expression of miRNA SEQ ID NO: 18 normalized to control cells” value came out at 3.31. Further, in test [1] (Compound D 2 uM), the “expression of miRNA SEQ ID NO: 1 (hsa-miR-346) normalized to control cells” value stood at 0.26, the “expression of miRNA SEQ ID NO: 2 normalized to control cells” value came to 0.33, the “expression of miRNA SEQ ID NO: 3 normalized to control cells” value stood at 0.23 and the “expression of miRNA SEQ ID NO: 4 normalized to control cells” value came to 0.27. In test [1] (Compound D 2 uM), the “expression of miRNA SEQ ID NO: 5 normalized to control cells” value came out at 0.31, the “expression of miRNA SEQ ID NO: 12 (hsa-miR-145) normalized to control cells” value amounted to 3.09, the “expression of miRNA SEQ ID NO: 13 normalized to control cells” value is 3.53 and the “expression of miRNA SEQ ID NO: 14 normalized to control cells” value stood at 3.19. In test [1] (Compound D 2 uM), the “expression of miRNA SEQ ID NO: 15 normalized to control cells” value was found to be 3.29, the “expression of miRNA SEQ ID NO: 16 normalized to control cells” value is listed as 4.68, the “expression of small non-coding RNA SEQ ID NO: 26 normalized to control cells” value is given as 0.46 and the “expression of small non-coding RNA SEQ ID NO: 27 normalized to control cells” value worked out at 0.45.
